# Test results from patent publication US6894050B2, “5-HT receptor ligands and uses thereof” (Pfizer Inc., priority 2001, dated 2005).
# Structures can show the parent of a compound that is named as a salt.
# Assays:
# [1] = system: anaesthetised rabbit model of sexual arousal; test: Pelvic nerve-stimulated genital blood flow in the anaesthetised rabbit model of sexual arousal; type: in vivo; settings: 5 mg/kg s.c.; for Compound-induced potentiation of stimulated vaginal blood flow: %
# Procedure: Female New Zealand rabbits (˜2.5 kg) were pre-medicated with a combination of Medetomidine (Domitor®) 0.5 ml/kg intramuscularly (i.m.), and Ketamine (Vetalar®) 0.25 ml/kg i.m. whilst maintaining oxygen intake via a face mask. The rabbits were tracheotomised using a Portex™ uncuffed endotracheal tube 3 ID (internal diameter), connected to ventilator and maintained at a ventilation rate of 30-40 breaths per minute, with an approximate tidal volume of 18-20 ml, and a maximum airway pressure of 10 cm H2O. Anaesthesia was then switched to Isoflurane® and ventilation continued with O2 at 2 l/min. The right marginal ear vein was cannulated using a 23G or 24G catheter, and Lactated Ringer solution perfused at 0.5 ml/min. The rabbit was maintained at 3% Isoflurane® during invasive surgery, dropping to 2% for maintenance anaesthesia.
# The left groin area of the rabbit was shaved and a vertical incision was made approximately 5 cm in length along the thigh. The femoral vein and artery were exposed, isolated and then cannulated with a PVC catheter (17G) for the infusion of drugs and compounds. Cannulation was repeated for the femoral artery, inserting the catheter to a depth of 10 cm to ensure that the catheter reached the abdominal aorta. This arterial catheter was linked to a Gould system to record blood pressure. Samples for blood gas analysis were also taken via the arterial catheter. Systolic and diastolic pressures were measured, and the mean arterial pressure calculated using the formula (diastolic×2+systolic)÷3. Heart rate was measured via the pulse oxymeter and Po-ne-mah data acquisition software system (Ponemah Physiology Platform, Gould Instrument Systems Inc).
# A ventral midline incision was made into the abdominal cavity. The incision was about 5 cm in length just above the pubis. The fat and muscle was bluntly dissected away to reveal the hypogastric nerve which runs down the body cavity. It was essential to keep close to the side curve of the pubis wall in order to avoid damaging the femoral vein and artery, which lie above the pubis. The sciatic and pelvic nerves lie deeper and were located after further dissection on the dorsal side of the rabbit. Once the sciatic nerve is identified, the pelvic nerve was easily located. The term pelvic nerve is loosely applied; anatomy books on the subject fail to identify the nerves in sufficient detail. However, stimulation of the nerve causes an increase in vaginal and clitoral blood flow, and innervation of the pelvic region. The pelvic nerve was freed away from surrounding tissue and a Harvard bipolar stimulating electrode was placed around the nerve. The nerve was slightly lifted to give some tension, then the electrode was secured in position. Approximately 1 ml of light paraffin oil was placed around the nerve and electrode. This acts as a protective lubricant to the nerve and prevents blood contamination of the electrode. The electrode was connected to a Grass S88 Stimulator. The pelvic nerve was stimulated using the following parameters:—5V, pulse width 0.5 ms, duration of stimulus 10 seconds and a frequency range of 2 to 16 Hz. Reproducible responses were obtained when the nerve was stimulated every 15-20 minutes. A frequency response curve was determined at the start of each experiment in order to determine the optimum frequency to use as a sub-maximal response, normally 4 Hz. A ventral midline incision was made, at the caudal end of the pubis, to expose the pubic area. Connective tissue was removed to expose the tunica of the clitoris, ensuring that the wall was free from small blood vessels. The external vaginal wall was also exposed by removing any connective tissue. One laser Doppler flow probe was inserted 3 cm into the vagina, so that half the probe shaft was still visible. A second probe was positioned so that it lay just above the external clitoral wall. The position of these probes was then adjusted until a signal was obtained. […]
# [2] = biological target: T1, 5-HT2c receptor (5-HT2c expressed NIH 3T3 cells) (UniProt P28335); test: Functional Assay (FLIPR calcium fluorescence, Fluo 4-AM); type: cell-based
# T1 sequence (P28335 1-458): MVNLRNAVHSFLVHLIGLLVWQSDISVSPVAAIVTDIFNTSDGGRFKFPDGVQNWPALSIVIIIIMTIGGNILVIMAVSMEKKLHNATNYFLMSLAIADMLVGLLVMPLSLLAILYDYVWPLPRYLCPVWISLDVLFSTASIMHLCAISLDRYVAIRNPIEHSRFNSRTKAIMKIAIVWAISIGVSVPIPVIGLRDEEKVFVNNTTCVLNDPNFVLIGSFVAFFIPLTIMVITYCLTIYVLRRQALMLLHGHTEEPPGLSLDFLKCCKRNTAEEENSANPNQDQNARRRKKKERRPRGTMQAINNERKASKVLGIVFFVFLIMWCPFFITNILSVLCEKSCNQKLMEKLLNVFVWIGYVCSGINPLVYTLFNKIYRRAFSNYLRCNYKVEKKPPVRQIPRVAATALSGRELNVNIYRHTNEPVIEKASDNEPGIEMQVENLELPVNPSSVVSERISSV
# Procedure: […] Forty eight (48) hrs later the cells were loaded with the calcium sensitive dye, Fluo 4-AM (4 μM dissolved in DMSO containing pluronic acid) in serum free DMEM in the presence of probenicid (2.5 mM) for 75 minutes at 37° C. in a CO2 incubator. Unincorporated dye was removed by washing 3 times with a HEPES-buffered saline containing probenicid (2.5 mM) using a Skatron™ cell washer (final volume 30 μL).
# Test compound additions were made simultaneously to all 384 wells after 20 seconds of baseline recording. Concentration-response curves were generated using Graphpad Prism™ (available from GraphPad Software, Inc., San Diego, Calif.) and agonist efficacies were generated as % of the response to 10 μM 5-HT (considered as 100%).
structure (smiles),measurement,setting,value
COCC[C@H](CC1(C(=O)NCCCc2ccc(Cl)cc2)CCCC1)C(=O)O (as salt: sodium),melting point,,214 to 216 °C
"O=C1Nc2cc(Cl)c(Cl)cc2N2CCNCC12 (stereo not shown) [8,9-dichloro-2,3,4,4a-tetrahydro-1H-pyrazino[1,2-a]quinoxalin-5(6H)-one]",time after s.c. dosing at which potentiation was significant,[1],30 min
same,time potentiation remained elevated,[1],circa 1 hr
same,effect on pelvic-nerve stimulated (PNS) increases in vaginal and clitoral blood flow,[1]; anaesthetised rabbit,potent enhancer
same,potentiation of pelvic nerve stimulated increases in genital blood flow,[1]; anaesthetised rabbit,circa 35%
same,effect on basal genital blood flow in the absence of PNS,[1]; no pelvic nerve stimulation,no effect
same,Pelvic nerve stimulated increases in vaginal blood flow,[1]; 15 min after injection,292 Laser Doppler units
same,Unstimulated vaginal blood flow,[1]; 15 min after injection,185 Laser Doppler units
same,Compound-induced potentiation of stimulated vaginal blood flow,[1]; 15 min after injection,21%
same,Pelvic nerve stimulated increases in vaginal blood flow,[1]; 30 min after injection,325 Laser Doppler units
same,Unstimulated vaginal blood flow,[1]; 30 min after injection,162 Laser Doppler units
same,Compound-induced potentiation of stimulated vaginal blood flow,[1]; 30 min after injection,34%
same,Pelvic nerve stimulated increases in vaginal blood flow,[1]; 45 min after injection,295 Laser Doppler units
same,Unstimulated vaginal blood flow,[1]; 45 min after injection,150 Laser Doppler units
same,Compound-induced potentiation of stimulated vaginal blood flow,[1]; 45 min after injection,22%
same,Pelvic nerve stimulated increases in vaginal blood flow,[1]; 60 min after injection,325 Laser Doppler units
same,Unstimulated vaginal blood flow,[1]; 60 min after injection,127 Laser Doppler units
same,Compound-induced potentiation of stimulated vaginal blood flow,[1]; 60 min after injection,34%
same,Pelvic nerve stimulated increases in vaginal blood flow,[1]; 75 min after injection,252 Laser Doppler units
same,Unstimulated vaginal blood flow,[1]; 75 min after injection,137 Laser Doppler units
same,Compound-induced potentiation of stimulated vaginal blood flow,[1]; 75 min after injection,4%
same,Pelvic nerve stimulated increases in vaginal blood flow,[1]; 90 min after injection,247 Laser Doppler units
same,Unstimulated vaginal blood flow,[1]; 90 min after injection,132 Laser Doppler units
same,Compound-induced potentiation of stimulated vaginal blood flow,[1]; 90 min after injection,2%
"Cc1cc(C)cc(COc2cncc(N3CCNCC3)n2)c1 [Example 1-AA, 6′-(3,5-Dimethyl-benzyloxy)-3,4,5,6-tetrahydro-2H-[1,2′]bipyrazinyl]",functional behaviour at 5-HT2c,[2],acted as an antagonist
"C[C@@H](Oc1cncc(N2CCNCC2)n1)c1ccccc1 [Example 1-AE, 6′-[(1R)-Phenyl-ethoxy]-3,4,5,6-tetrahydro-2H-[1,2′]bipyrazinyl]",functional behaviour at 5-HT2c,[2],acted as an antagonist
"C[C@H](Oc1cncc(N2CCNCC2)n1)c1ccccc1 [Example 1-AF, 6′-[(1S)-Phenyl-ethoxy]-3,4,5,6-tetrahydro-2H-[1,2′]bipyrazinyl]",functional behaviour at 5-HT2c,[2],acted as an antagonist
"C[C@@H]1CNCCN1c1cncc(OCc2ccccc2F)n1 [Example 1-AH, 6′-(2-Fluoro-benzyloxy)-(2R)-methyl-3,4,5,6-tetrahydro-2H-[1,2′]bipyrazinyl]",functional behaviour at 5-HT2c,[2],acted as an antagonist
"C[C@H]1CN(c2cncc(OCc3cccc(F)c3)n2)CCN1 [Example 1-AL, 6′-(3-Fluoro-benzyloxy)-(3S)-methyl-3,4,5,6-tetrahydro-2H-[1,2′]bipyrazinyl]",functional behaviour at 5-HT2c,[2],acted as an antagonist
"Clc1cccc(COc2cncc(N3CCNCC3)n2)c1Cl [Example 1-AO, 6′-(2,3-Dichloro-benzyloxy)-3,4,5,6-tetrahydro-2H-[1,2′]bipyrazinyl]",functional behaviour at 5-HT2c,[2],acted as an antagonist
"CN1CCN(c2cncc(OCc3cccc(Cl)c3)n2)CC1 [Example 1-AS, 6′-(3-Chloro-benzyloxy)-4-methyl-3,4,5,6-tetrahydro-2H-[1,2′]bipyrazinyl]",functional behaviour at 5-HT2c,[2],acted as an antagonist
"CN1CCN(c2cncc(OCc3cccc(F)c3)n2)CC1 [Example 1-AT, 6′-(3-Fluoro-benzyloxy)-4-methyl-3,4,5,6-tetrahydro-2H-[1,2′]bipyrazinyl]",functional behaviour at 5-HT2c,[2],acted as an antagonist
"Clc1cc(Cl)cc(COc2cncc(N3CCNCC3)n2)c1 [Example 1-N, 6′-(3,5-Dichloro-benzyloxy)-3,4,5,6-tetrahydro-2H-[1,2′]bipyrazinyl]",functional behaviour at 5-HT2c,[2],acted as an antagonist
"Clc1ccc(COc2cncc(N3CCNCC3)n2)cc1 [Example 1-R, 6′-(4-Chloro-benzyloxy)-3,4,5,6-tetrahydro-2H-[1,2′]bipyrazinyl]",functional behaviour at 5-HT2c,[2],acted as an antagonist
"C[C@@H]1CN(c2cncc(OCc3cccc(Cl)c3)n2)CCN1 [Example 1-U, 6′-(3-Chloro-benzyloxy)-(3R)-methyl-3,4,5,6-tetrahydro-2H-[1,2′]bipyrazinyl]",functional behaviour at 5-HT2c,[2],acted as an antagonist
"C[C@@H]1CN(c2cncc(OCc3cccc(Cl)c3)n2)C[C@H](C)N1 [Example 1-V, 6′-(3-Chloro-benzyloxy)-(3R,5S)-dimethyl-3,4,5,6-tetrahydro-2H-[1,2′]bipyrazinyl]",activity at 10 μM,[2]; 10 μM,no activity
"FC(F)(F)c1cc(COc2cncc(N3CCNCC3)n2)cc(C(F)(F)F)c1 [Example 1-W, 6′-(3,5-Bis-trifluoromethyl-benzyloxy)-3,4,5,6-tetrahydro-2H-[1,2′]bipyrazinyl]",functional behaviour at 5-HT2c,[2],acted as an antagonist
"CC(Oc1cncc(N2CCNCC2)n1)c1cc(F)cc(F)c1 (stereo not shown) [Example 1-Z, 6′-[1-(3,5-Difluoro-phenyl)-ethoxy]-3,4,5,6-tetrahydro-2H-[1,2′]bipyrazinyl]",functional behaviour at 5-HT2c,[2],acted as an antagonist
"Cl.Clc1ccc(CNc2cncc(N3CCNCC3)n2)cc1 [Example 4-C, (4-Chloro-benzyl)-(3,4,5,6-tetrahydro-2H-[1,2′]bipyrazinyl-6′-yl)-amine hydrochloride salt]",functional behaviour at 5-HT2c,[2],acted as an antagonist
"Cl.Fc1ccc(CNc2cncc(N3CCNCC3)n2)cc1 [Example 4-D, (4-Fluoro-benzyl)-(3,4,5,6-tetrahydro-2H-[1,2′]bipyrazinyl-6′-yl)-amine hydrochloride salt]",functional behaviour at 5-HT2c,[2],acted as an antagonist
